± gives the expanded uncertainty stated by the source.
Assay: xn = mol fraction of the nth substance listed
Conditions: Liquid, Vibrating tube method

COc1cc2c(cc1O)CC1c3c(cc(O)c(OC)c3-2)CCN1C (stereo not given) [boldine] + CCO
Conditions	mass density [kg/m3]
323.04 K, 16000 kPa, x1 = 0.0074	793.69 ± 0.9
323.04 K, 16000 kPa, x1 = 0.0196	821.98 ± 0.86
323.04 K, 17000 kPa, x1 = 0.0074	794.55 ± 0.9
323.04 K, 17000 kPa, x1 = 0.0196	822.81 ± 0.86
323.04 K, 18000 kPa, x1 = 0.0074	795.4 ± 0.9
323.04 K, 18000 kPa, x1 = 0.0196	823.62 ± 0.86
323.04 K, 19000 kPa, x1 = 0.0074	796.23 ± 0.91
323.04 K, 19000 kPa, x1 = 0.0196	824.42 ± 0.86
323.04 K, 20000 kPa, x1 = 0.0074	797.04 ± 0.91
323.04 K, 20000 kPa, x1 = 0.0196	825.2 ± 0.87
323.05 K, 1000 kPa, x1 = 0.0267	820.88 ± 0.7
323.05 K, 2000 kPa, x1 = 0.0267	821.74 ± 0.7
323.05 K, 3000 kPa, x1 = 0.0267	822.62 ± 0.7
323.05 K, 4000 kPa, x1 = 0.0267	823.5 ± 0.7
323.05 K, 5000 kPa, x1 = 0.0267	824.37 ± 0.7
323.05 K, 6000 kPa, x1 = 0.0267	825.26 ± 0.71
323.05 K, 7000 kPa, x1 = 0.0267	826.15 ± 0.71
323.05 K, 8000 kPa, x1 = 0.0267	827.02 ± 0.71
323.05 K, 9000 kPa, x1 = 0.0267	827.89 ± 0.71
323.05 K, 10000 kPa, x1 = 0.0267	828.78 ± 0.71
323.05 K, 11000 kPa, x1 = 0.0267	829.64 ± 0.71
323.05 K, 12000 kPa, x1 = 0.0267	830.5 ± 0.71
323.05 K, 13000 kPa, x1 = 0.0267	831.36 ± 0.72
323.05 K, 14000 kPa, x1 = 0.0267	832.21 ± 0.72
323.05 K, 15000 kPa, x1 = 0.0267	833.04 ± 0.72
323.05 K, 16000 kPa, x1 = 0.0267	833.87 ± 0.72
323.05 K, 17000 kPa, x1 = 0.0267	834.68 ± 0.72
323.05 K, 18000 kPa, x1 = 0.0267	835.48 ± 0.73
323.05 K, 19000 kPa, x1 = 0.0267	836.27 ± 0.73
323.05 K, 20000 kPa, x1 = 0.0267	837.04 ± 0.73
323.11 K, 1000 kPa, x1 = 0.0136	793.39 ± 0.96
323.11 K, 2000 kPa, x1 = 0.0136	794.29 ± 0.96
323.11 K, 3000 kPa, x1 = 0.0136	795.2 ± 0.96
323.11 K, 4000 kPa, x1 = 0.0136	796.12 ± 0.96
323.11 K, 5000 kPa, x1 = 0.0136	797.04 ± 0.96
323.11 K, 6000 kPa, x1 = 0.0136	797.96 ± 0.96
323.11 K, 7000 kPa, x1 = 0.0136	798.88 ± 0.96
323.11 K, 8000 kPa, x1 = 0.0136	799.8 ± 0.96
323.11 K, 9000 kPa, x1 = 0.0136	800.72 ± 0.97
323.11 K, 10000 kPa, x1 = 0.0136	801.63 ± 0.97
323.11 K, 11000 kPa, x1 = 0.0136	802.53 ± 0.97
323.11 K, 12000 kPa, x1 = 0.0136	803.44 ± 0.97
323.11 K, 13000 kPa, x1 = 0.0136	804.33 ± 0.97
323.11 K, 14000 kPa, x1 = 0.0136	805.21 ± 0.97
323.11 K, 15000 kPa, x1 = 0.0136	806.08 ± 0.97
323.11 K, 16000 kPa, x1 = 0.0136	806.95 ± 0.97
323.11 K, 17000 kPa, x1 = 0.0136	807.79 ± 0.98
323.11 K, 18000 kPa, x1 = 0.0136	808.63 ± 0.98
323.11 K, 19000 kPa, x1 = 0.0136	809.44 ± 0.98
323.11 K, 20000 kPa, x1 = 0.0136	810.25 ± 0.98
332.92 K, 1000 kPa, x1 = 0.0012	757.69 ± 0.86
332.92 K, 2000 kPa, x1 = 0.0012	758.72 ± 0.86
332.92 K, 3000 kPa, x1 = 0.0012	759.75 ± 0.87
332.92 K, 4000 kPa, x1 = 0.0012	760.77 ± 0.87
332.92 K, 5000 kPa, x1 = 0.0012	761.81 ± 0.87
332.92 K, 6000 kPa, x1 = 0.0012	762.85 ± 0.87
332.92 K, 7000 kPa, x1 = 0.0012	763.86 ± 0.87
332.92 K, 8000 kPa, x1 = 0.0012	764.88 ± 0.87
332.92 K, 9000 kPa, x1 = 0.0012	765.9 ± 0.88
332.92 K, 10000 kPa, x1 = 0.0012	766.9 ± 0.88
332.92 K, 11000 kPa, x1 = 0.0012	767.9 ± 0.88
332.92 K, 12000 kPa, x1 = 0.0012	768.88 ± 0.88
332.92 K, 13000 kPa, x1 = 0.0012	769.87 ± 0.88
332.92 K, 14000 kPa, x1 = 0.0012	770.83 ± 0.89
332.92 K, 15000 kPa, x1 = 0.0012	771.78 ± 0.89
332.92 K, 16000 kPa, x1 = 0.0012	772.72 ± 0.89
332.92 K, 17000 kPa, x1 = 0.0012	773.63 ± 0.89
332.92 K, 18000 kPa, x1 = 0.0012	774.53 ± 0.9
332.92 K, 19000 kPa, x1 = 0.0012	775.42 ± 0.9
332.92 K, 20000 kPa, x1 = 0.0012	776.29 ± 0.9
332.93 K, 1000 kPa, x1 = 0.0074	770.77 ± 0.88
332.93 K, 2000 kPa, x1 = 0.0074	771.77 ± 0.88
332.93 K, 3000 kPa, x1 = 0.0074	772.79 ± 0.89
332.93 K, 4000 kPa, x1 = 0.0074	773.79 ± 0.89
332.93 K, 5000 kPa, x1 = 0.0074	774.8 ± 0.89
332.93 K, 6000 kPa, x1 = 0.0074	775.81 ± 0.89
332.93 K, 7000 kPa, x1 = 0.0074	776.8 ± 0.89
332.93 K, 8000 kPa, x1 = 0.0074	777.8 ± 0.89
332.93 K, 9000 kPa, x1 = 0.0074	778.8 ± 0.89
332.93 K, 10000 kPa, x1 = 0.0074	779.77 ± 0.9
332.93 K, 11000 kPa, x1 = 0.0074	780.75 ± 0.9
332.93 K, 12000 kPa, x1 = 0.0074	781.71 ± 0.9
332.93 K, 13000 kPa, x1 = 0.0074	782.66 ± 0.9
332.93 K, 14000 kPa, x1 = 0.0074	783.61 ± 0.9
332.93 K, 15000 kPa, x1 = 0.0074	784.53 ± 0.91
332.93 K, 16000 kPa, x1 = 0.0074	785.45 ± 0.91
332.93 K, 17000 kPa, x1 = 0.0074	786.34 ± 0.91
332.93 K, 18000 kPa, x1 = 0.0074	787.23 ± 0.91
332.93 K, 19000 kPa, x1 = 0.0074	788.09 ± 0.92
332.93 K, 20000 kPa, x1 = 0.0074	788.95 ± 0.92
332.95 K, 1000 kPa, x1 = 0.0196	799.67 ± 0.84
332.95 K, 2000 kPa, x1 = 0.0196	800.63 ± 0.84
332.95 K, 3000 kPa, x1 = 0.0196	801.6 ± 0.84
332.95 K, 4000 kPa, x1 = 0.0196	802.56 ± 0.84
332.95 K, 5000 kPa, x1 = 0.0196	803.52 ± 0.85
332.95 K, 6000 kPa, x1 = 0.0196	804.48 ± 0.85
332.95 K, 7000 kPa, x1 = 0.0196	805.45 ± 0.85
332.95 K, 8000 kPa, x1 = 0.0196	806.4 ± 0.85
332.95 K, 9000 kPa, x1 = 0.0196	807.35 ± 0.85
332.95 K, 10000 kPa, x1 = 0.0196	808.29 ± 0.85
332.95 K, 11000 kPa, x1 = 0.0196	809.23 ± 0.85
332.95 K, 12000 kPa, x1 = 0.0196	810.15 ± 0.85
332.95 K, 13000 kPa, x1 = 0.0196	811.07 ± 0.85
332.95 K, 14000 kPa, x1 = 0.0196	811.98 ± 0.85
332.95 K, 15000 kPa, x1 = 0.0196	812.86 ± 0.86
332.95 K, 16000 kPa, x1 = 0.0196	813.75 ± 0.86
332.95 K, 17000 kPa, x1 = 0.0196	814.61 ± 0.86
332.95 K, 18000 kPa, x1 = 0.0196	815.46 ± 0.86
332.95 K, 19000 kPa, x1 = 0.0196	816.3 ± 0.86
332.95 K, 20000 kPa, x1 = 0.0196	817.11 ± 0.87
333 K, 1000 kPa, x1 = 0.0267	811.86 ± 0.7
333 K, 2000 kPa, x1 = 0.0267	812.8 ± 0.7
333 K, 3000 kPa, x1 = 0.0267	813.76 ± 0.7
333 K, 4000 kPa, x1 = 0.0267	814.69 ± 0.71
333 K, 5000 kPa, x1 = 0.0267	815.65 ± 0.71
333 K, 6000 kPa, x1 = 0.0267	816.59 ± 0.71
333 K, 7000 kPa, x1 = 0.0267	817.53 ± 0.71
333 K, 8000 kPa, x1 = 0.0267	818.45 ± 0.71
333 K, 9000 kPa, x1 = 0.0267	819.38 ± 0.71
333 K, 10000 kPa, x1 = 0.0267	820.29 ± 0.71
333 K, 11000 kPa, x1 = 0.0267	821.22 ± 0.71
333 K, 12000 kPa, x1 = 0.0267	822.11 ± 0.72
333 K, 13000 kPa, x1 = 0.0267	823.01 ± 0.72
333 K, 14000 kPa, x1 = 0.0267	823.9 ± 0.72
333 K, 15000 kPa, x1 = 0.0267	824.77 ± 0.72
333 K, 16000 kPa, x1 = 0.0267	825.63 ± 0.72
333 K, 17000 kPa, x1 = 0.0267	826.48 ± 0.73
333 K, 18000 kPa, x1 = 0.0267	827.32 ± 0.73
333 K, 19000 kPa, x1 = 0.0267	828.13 ± 0.73
333 K, 20000 kPa, x1 = 0.0267	828.94 ± 0.73
333.04 K, 1000 kPa, x1 = 0.0136	784.43 ± 0.96
333.04 K, 2000 kPa, x1 = 0.0136	785.41 ± 0.96
333.04 K, 3000 kPa, x1 = 0.0136	786.41 ± 0.96
333.04 K, 4000 kPa, x1 = 0.0136	787.39 ± 0.96
333.04 K, 5000 kPa, x1 = 0.0136	788.38 ± 0.96
333.04 K, 6000 kPa, x1 = 0.0136	789.37 ± 0.97
333.04 K, 7000 kPa, x1 = 0.0136	790.36 ± 0.97
333.04 K, 8000 kPa, x1 = 0.0136	791.33 ± 0.97
333.04 K, 9000 kPa, x1 = 0.0136	792.31 ± 0.97
333.04 K, 10000 kPa, x1 = 0.0136	793.27 ± 0.97
333.04 K, 11000 kPa, x1 = 0.0136	794.24 ± 0.97
333.04 K, 12000 kPa, x1 = 0.0136	795.2 ± 0.97
333.04 K, 13000 kPa, x1 = 0.0136	796.14 ± 0.97
333.04 K, 14000 kPa, x1 = 0.0136	797.07 ± 0.98
333.04 K, 15000 kPa, x1 = 0.0136	797.98 ± 0.98
333.04 K, 16000 kPa, x1 = 0.0136	798.89 ± 0.98
333.04 K, 17000 kPa, x1 = 0.0136	799.78 ± 0.98
333.04 K, 18000 kPa, x1 = 0.0136	800.65 ± 0.98
333.04 K, 19000 kPa, x1 = 0.0136	801.51 ± 0.98
333.04 K, 20000 kPa, x1 = 0.0136	802.34 ± 0.99

Source: the NIST ThermoML archive (doi:10.1016/j.jct.2012.03.003)
